Data on 18 substances can be found in US20160207969A1, “CLOSTRIDIUM DIFFICILE TARGETING MOIETIES AND CONSTRUCTS COMPRISING SAID MOIETIES” (C3 Jian, Inc., priority 2014, published 2016).

Ends that are not written are not given here.

One series has as its system Trubrum. As to the kind of experiment: MIC of antimicrobial peptides (Table 3). The series is classed as cell-based.
Series [1] relates to C. difficile isolate CD43255 (ATCC 43255). Particulars: ATCC 43255, 24 h.
For series [2], the system named is C. difficile isolate 1803. The conditions noted are these: Clostridium difficile, 15 min.
Series [3] concerns C. difficile isolate CD1382 (ATCC 630, strain 1382). The conditions noted are these: ATCC 630, 24 h.
For series [4], the system named is B. fragilis. The conditions noted are these: 24 h.
The subject of series [5] is C. difficile isolate CD43601 (ATCC 43601, non-toxigenic). Particulars: ATCC 43601, 24 h.
For series [6], the system named is C. difficile isolate CD1875 (ATCC BAA-1875). The conditions noted are these: ATCC BAA-1875, 24 h.
For the next series, the system named is L. casei. Particulars: 24 h.
The subject of series [7] is C. difficile isolate CD1803 (ATCC BAA-1803). Particulars: ATCC BAA-1803, 24 h.
For series [8], the system named is B. fragilis. As to the kind of experiment: Peptide killing kinetics (CFU plating, co-culture). The conditions noted are these: for activity on un-targeted organism B. fragilis compared to the levels seen on C. difficile isolate 1803: killing kinetics; for surviving B. fragilis: through 2 hours of STAMP exposure. The series is classed as cell-based.
Another series concerns C. difficile. As to the kind of experiment: MIC of antimicrobial peptides (Table 3). Particulars: unit not given. Type of series: cell-based.

As for “WSRVPGHSDTGWKVWHRW (Antimicrobial peptide) [PF-547]”, the “Organism MIC” value in the series with Trubrum is “Trubrum, 25 μM”.

On to “LATKLKYEKEHKKMGKIFGAIWPLALGALKNLIK-NH2 [CD0126 + Lys_A1_1G]”, for which the MIC values in [1] is 15.6 µg/mL; in series [3], 7.8 µg/mL; with B. fragilis [4], >250 µg/mL; in series [5] it was 15.6 µg/mL; in [6] it was 15.6 µg/mL; against L. casei, >250 µg/mL. In [7], this substance had an MIC values of 7.8 µg/mL. The “viable C. difficile recovered” value in [2] is recorded as < 90%.

As for “GSVIKKRRKRMAKKKHRKLLKKTRIQRRRAGK [PF-527]”, the “Organism MIC” value in the series on Trubrum is listed as “Trubrum, 25 μM”.

Regarding “NILRVLKQVWKGGGKNLRIIRKGIHIIKKY-NH2 (C-terminus assumed) [CD9232_G2_3G]”, the MIC values was found to be 7.8 µg/mL in [1]; 3.9 µg/mL in series [3]; 15.6 µg/mL against B. fragilis [4]; 7.8 µg/mL in series [5]; 31.3 µg/mL in [6]; 125 µg/mL against L. casei. In addition, the MIC values in series [7] turned out to be 7.8 µg/mL. In addition, the “viable C. difficile recovered” value in series [2] is on record as < 90%. Moreover, in the series on B. fragilis [8], the “activity on un-targeted organism B. fragilis compared to the levels seen on C. difficile isolate 1803” value is on record as “less active”. The “surviving B. fragilis” value with B. fragilis [8] was “did not significantly decrease”.

On to “VPAKLLRVIDEIPKLFKFLRKHLL-NH2 [CD0714 + BD2-21_NG]”, for which the MIC values in series [1] is 7.8 µg/mL; in [3] it was 7.8 µg/mL; against B. fragilis [4], >250 µg/mL; in series [5] it was 3.9 µg/mL; in [6], 15.6 µg/mL; in the series on L. casei, 125 µg/mL. For the same substance, the MIC values in series [7] amounted to 15.6 µg/mL.

For the substance “LATKLKYEKEHKKMGGGGFLKFLKKFFKKLKYY-NH2 [CD0126 + AF5_4G]”, the MIC values in series [1] is 15.6 µg/mL; in [3], 15.6 µg/mL; in the series with B. fragilis [4], >250 µg/mL; in series [5], 7.8 µg/mL; in series [6], 15.6 µg/mL; against L. casei, >250 µg/mL. The MIC values in series [7] was found to be 31.3 µg/mL. Also, the “viable C. difficile recovered” value in [2] is reported as < 90%. Moreover, the “activity on un-targeted organism B. fragilis compared to the levels seen on C. difficile isolate 1803” value in the series with B. fragilis [8] is given as “less active”. In the series with B. fragilis [8], the “surviving B. fragilis” value is given as “did not significantly decrease”.

For the substance “FELVDWLETNLGKILKSKSA (Antimicrobial peptide) [PF-522]”, the “Organism MIC” value in the series on C. difficile is listed as “C. difficile, 25”.

Take “VPAKLLRVIDEIPGGFLKFLKKFFKKLKY-NH2 [CD0714 + AF5_2G]”: the MIC values is 31.3 µg/mL in series [1]; 31.3 µg/mL in [3]; >250 µg/mL against B. fragilis [4]; 62.5 µg/mL in series [6]; >250 µg/mL against L. casei; 62.5 µg/mL in [7].

For “LSLATFAKIFMTRSNWSLKRFNRL (Antimicrobial peptide) [PF-278]”, the “Organism MIC” value in the series on Trubrum was “Trubrum, 50 μM”.

Take “MRFGSLALVAYDSAIKHSWPRPSSVRRLRM (Antimicrobial peptide) [PF-672]”: the “Organism MIC” value in the series with Trubrum is “Trubrum, 0.78 μM”.

As to “VPAKLLRVIKKIPGGFLKFLKKFFKKLK-NH2 [CD0714 + AF5_2G_M4]”, the MIC values in [1] was 7.8 µg/mL; in series [3] it was 3.9 µg/mL; against B. fragilis [4], 62.5 µg/mL; in [5] it was 3.9 µg/mL; in series [6], 15.6 µg/mL; against L. casei it was 125 µg/mL. This substance also gave an MIC values in series [7] of 7.8 µg/mL.

As for “LATLKKYLKEHKKMGKIFGAIWPLALGALKNLIK-NH2 [CD0126 + Lys_A1_M3]”, the MIC values was 7.8 µg/mL in series [1]; 3.9 µg/mL in [3]; >250 µg/mL against B. fragilis [4]; 7.8 µg/mL in series [5]; 7.8 µg/mL in [6]; >250 µg/mL against L. casei. In addition, the MIC values in series [7] is 7.8 µg/mL.

“GNFYRLFKDILKGGGKNLRIIRKGIHIIKKY-NH2 (C-terminus assumed) [CD8040_G2_3G]”: the MIC values in series [1] is 31.3 µg/mL; in series [3] it was 15.6 µg/mL; in the series with B. fragilis [4] it was 62.5 µg/mL; in [5], 31.3 µg/mL; in series [6], 62.5 µg/mL; in the series with L. casei, >250 µg/mL. Moreover, the MIC values in series [7] worked out at 15.6 µg/mL. The “viable C. difficile recovered” value in [2] is < 90%. In the series on B. fragilis [8], the “activity on un-targeted organism B. fragilis compared to the levels seen on C. difficile isolate 1803” value is “less active”. The “surviving B. fragilis” value in the series on B. fragilis [8] is reported as “did not significantly decrease”.

“VPAKLLRVIKEIPGGFLKFLKKFFKKLK-NH2 [CD0714 + AF5_2G_M7]”: the MIC values in series [1] was 3.9 µg/mL; in series [3], 7.8 µg/mL; against B. fragilis [4], >250 µg/mL; in [5], 7.8 µg/mL; in series [6] it was 15.6 µg/mL; against L. casei, >250 µg/mL. For the same substance, the MIC values in series [7] came to 3.9 µg/mL.

“VLPFPAIPLSRRRACVAAPRPRSRQRAS (Antimicrobial peptide) [PF-168]”: the “Organism MIC” value with Trubrum is given as “Trubrum, 50 μM”.

On to “VPAKLLRVIDEIPGGKIFGAIWPLALGALKNLIK-NH2 [CD0714 + Lys_A1_2G]”, for which the MIC values in series [1] was 62.5 µg/mL; in [3], 31.3 µg/mL; in the series on B. fragilis [4] it was >250 µg/mL; in series [5] it was 15.6 µg/mL; in series [6], 31.3 µg/mL; in the series on L. casei it was >250 µg/mL. Besides, the MIC values in [7] was found to be 125 µg/mL.

Take “MKRRRCNWCGKLFYLEEKSKEAYCCKECRKKAKKVKK (Antimicrobial peptide) [PF-307]”: the “Organism MIC” value in the series with Trubrum is reported as “Trubrum, 50 μM”.

For the substance “MIRIRSPTKKKLNRNSISDWKSNTSGRFFY (Antimicrobial peptide) [PF-283]”, the “Organism MIC” value in the series with Trubrum is given as “Trubrum, 50 μM”.
